Measured values from US20250243488A1, “METHODS OF MODULATING PROGRANULIN EXPRESSION USING ANTISENSE OLIGONUCLEOTIDES TARGETING REGULATORY RNAS” (Camp4 Therapeutics Corporation, priority 2022, published 2025).
Oligonucleotides are written 5' to 3', each unit as a sugar letter and its base; * is a phosphorothioate linkage, no mark a phosphodiester; rarer units and linkages stand in square brackets, end groups in braces. Plain capitals give the bases only. e = 2'-O-(2-methoxyethyl) (MOE); l = locked nucleic acid (LNA); [5mC] = 5-methylcytosine; d = 2'-deoxy (DNA)

System: GRN mRNA
Test: GRN mRNA qPCR in SK-N-AS cells transfected with ASOs
Type: cell-based, human
Details: SK-N-AS; for hGRN mRNA FC: Table 9, 48 hours post-transfection; for hGRN mRNA FC / 120 nM FC (GRN mRNA): 120 nM
Summary of the method: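 Fold change in GRN mRNA, by qPCR with GAPDH/PPIA housekeeping normalization, referenced to steric non-targeting control ASO(s) such as CO-1589. ASOs were transfected into SK-N-AS neuroblastoma cells in dose titrations (20 to 160 nM initially). Cells were harvested 48 hours post-transfection.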

[1] = Table 12, normalized to CO-1589
[2] = Table 3, normalized to CO-3772 and CO-1589 (sNTC1)
[3] = Table 8, normalized to CO-1589 (sNTC1)
[4] = Table 13, normalized to CO-1589
[5] = Table 10, 48 hours, normalized to CO-1589
[6] = Table 6, normalized to CO-3772, CO-1589 and CO-1929

CO-4626: ASO designed to target intergenic enhancers (eRNA) (antisense e[5mC]*e[5mC]*eT*e[5mC]*eA*eT*eG*eT*eA*eT*eG*eT*eA*eA*eT*eT*eG*e[5mC]*e[5mC]*e[5mC])
hGRN mRNA FC (normalized to CO-1589): 1.0 FC

CO-6409: ASO based on parent ASO CO-3462 (antisense eT*eA*eGeG*eA*eGeA*eA*eTe[5mC]*eG*e[5mC]eT*eT*eTeG*eG*eGeA*eG)
30 nM FC (GRN mRNA) [1]: 1.1 FC | 60 nM FC (GRN mRNA) [1]: 1.1 FC | 120 nM FC (GRN mRNA) [1]: 1.5 FC

CO-6405: ASO based on parent ASO CO-3462 (antisense eG*eG*eT*eA*eG*dG*dA*eG*dA*dA*eT*d[5mC]*dG*e[5mC]*dT*dT*eT*dG*dG*eG*eA*eG*e[5mC]*eA)
30 nM FC (GRN mRNA) [1]: 1.1 FC | 60 nM FC (GRN mRNA) [1]: 1.3 FC | 120 nM FC (GRN mRNA) [1]: 1.3 FC

CO-4358: LNA/PS modified ASO based on CO-3423 (antisense eG*eG*eA*l[5mC]*eT*eT*eG*lG*eG*eA*eG*lT*eG*eG*eT*lG*eA*e[5mC]*eT*eG)
30 nM FC (GRN mRNA) [2]: 1.5 FC | 60 nM FC (GRN mRNA) [2]: 1.9 FC | 120 nM FC (GRN mRNA) [2]: 2.0 FC

CO-6385: ASO based on parent ASO CO-3462 (antisense e[5mC]*eG*eG*eT*eA*eG*eG*eA*eG*eA*eA*eT*e[5mC]*eG*e[5mC]*eT*eT*eT*eG*eG)
30 nM FC (GRN mRNA) [1]: 1.1 FC | 60 nM FC (GRN mRNA) [1]: 1.2 FC | 120 nM FC (GRN mRNA) [1]: 1.3 FC

CO-4598: ASO designed to target intergenic enhancers (eRNA) (antisense eG*eT*eG*e[5mC]*eA*eA*eT*e[5mC]*eT*eG*eT*eG*eA*e[5mC]*e[5mC]*eT*eG*eT*eA*eA)
hGRN mRNA FC (normalized to CO-1589): 1.1 FC

CO-5288: ASO based on CO-3463 incorporating additional LNA modifications (antisense lG*lG*eA*lT*lA*eG*lG*eA*lT*eA*lG*eG*lA*eG*l[5mC]*eG*lA*eG*l[5mC]*l[5mC])
GRN mRNA upregulation as compared to control ASO CO-1589 (Table 8 series): 2 fold | 7.5 nM FC (GRN mRNA) [3]: 1.3 FC | 13 nM FC (GRN mRNA) (Table 8, 13 nM, normalized to CO-1589 (sNTC1)): 1.5 FC | 30 nM FC (GRN mRNA) [3]: 1.5 FC | 60 nM FC (GRN mRNA) [3]: 1.9 FC | 120 nM FC (GRN mRNA) [3]: 1.9 FC | 150 nM FC (GRN mRNA) (Table 8, 150 nM, normalized to CO-1589 (sNTC1)): 2.1 FC

CO-4650: ASO designed to target intergenic enhancers (eRNA) (antisense eT*eA*eA*eG*eA*e[5mC]*eT*eT*eT*e[5mC]*e[5mC]*eA*eG*e[5mC]*eA*eT*eG*eT*e[5mC]*e[5mC])
hGRN mRNA FC (normalized to CO-1589): 1.1 FC

CO-4360: LNA/PS modified ASO based on CO-3423 (antisense eG*eG*eA*e[5mC]*lT*eT*eG*eG*eG*lA*eG*eT*eG*eG*lT*eG*eA*e[5mC]*eT*eG)
30 nM FC (GRN mRNA) [2]: 1.4 FC | 60 nM FC (GRN mRNA) [2]: 1.8 FC | 120 nM FC (GRN mRNA) [2]: 2.5 FC

CO-6412: ASO based on parent ASOs CO-4363 and CO-4364 (antisense eG*eG*eA*e[5mC]*eT*dT*dG*dG*dG*dA*dG*dT*dG*dG*dT*dG*eA*e[5mC]*eT*eG*eA)
30 nM FC (GRN mRNA) [4]: 1.0 FC | 60 nM FC (GRN mRNA) [4]: 0.8 FC | 120 nM FC (GRN mRNA) [4]: 0.9 FC

CO-6394: ASO based on parent ASO CO-3462 (antisense eT*eA*lG*eG*eA*lG*eA*eA*lT*e[5mC]*eG*l[5mC]*eT*eT*lT*eG*eG*lG*eA*eG)
30 nM FC (GRN mRNA) [1]: 1.1 FC | 60 nM FC (GRN mRNA) [1]: 0.9 FC | 120 nM FC (GRN mRNA) [1]: 1.3 FC

CO-4614: ASO designed to target intergenic enhancers (eRNA) (antisense eT*eG*eA*e[5mC]*eT*eA*eG*eA*eG*eA*eA*eA*e[5mC]*eG*e[5mC]*eT*eT*eA*eG*eA)
hGRN mRNA FC (normalized to CO-1589): 1.2 FC

CO-6415: ASO based on parent ASOs CO-4363 and CO-4364 (antisense eG*eG*eA*l[5mC]*eT*eT*lG*eG*eG*lA*eG*eT*lG*eG*eT*lG*eA*e[5mC]*lT*eG*eA)
30 nM FC (GRN mRNA) [4]: 1.3 FC | 60 nM FC (GRN mRNA) [4]: 1.6 FC | 120 nM FC (GRN mRNA) [4]: 1.6 FC

CO-6523: ASO based on parent ASO CO-3462 (antisense eT*eA*eG*eG*eA*eG*eA*eA*eT*e[5mC]*eG*e[5mC]*eT*eTeTeGeGeG*eA*eG)
30 nM FC (GRN mRNA) [1]: 2.9 FC | 60 nM FC (GRN mRNA) [1]: 1.4 FC | 120 nM FC (GRN mRNA) [1]: 1.3 FC

CO-6407: ASO based on parent ASO CO-3462 (antisense TAGGAGAATCGCTTTGGGAG; 2'-MOE, 5-methylC, mixed PO/PS; listed as RNA; modified_base 1..3: mod_base = OTHER; note = Phosphorothioate linkage; modified_base 6..15: mod_base = OTHER; modified_base 1..9: mod_base = OTHER; modified_base 18..20: mod_bas)
30 nM FC (GRN mRNA) [1]: 1.1 FC | 60 nM FC (GRN mRNA) [1]: 1.2 FC | 120 nM FC (GRN mRNA) [1]: 1.6 FC

CO-6419: ASO based on parent ASOs CO-4363 and CO-4364 (eG*eG*eA*e[5mC]*eT*dT*dG*dG*dG*dA*dG*dT*dG*dG*dT*dG*dA*d[5mC]*eT*eG*eA*eA*e[5mC])
30 nM FC (GRN mRNA) [4]: 1.0 FC | 60 nM FC (GRN mRNA) [4]: 1.0 FC | 120 nM FC (GRN mRNA) [4]: 0.9 FC

CO-4649: ASO designed to target intergenic enhancers (eRNA) (antisense eT*eG*eG*eG*eA*e[5mC]*eA*eG*e[5mC]*eG*eT*eG*eG*eA*eT*eT*eA*eA*eT*eA)
hit identification (GRN mRNA dose escalation) (3.75 nM to 120 nM, 48 hours): initial hits | hGRN mRNA FC (normalized to CO-1589): 1.2 FC | 3.75 nM FC (GRN mRNA) (Table 10, 3.75 nM, 48 hours, normalized to CO-1589): 1.2 FC | 7.5 nM FC (GRN mRNA) [5]: 1.2 FC | 15 nM FC (GRN mRNA) (Table 10, 15 nM, 48 hours, normalized to CO-1589): 1.3 FC | 30 nM FC (GRN mRNA) [5]: 1.2 FC | 60 nM FC (GRN mRNA) [5]: 1.2 FC | 120 nM FC (GRN mRNA) [5]: 1.3 FC

CO-4456: mixed PO/PS bond version of CO-3431 (antisense eA*eT*eTeGe[5mC]eAeG*eT*eG*eA*e[5mC]*eG*e[5mC]*e[5mC]e[5mC]e[5mC]eGeT*eT*eA)
30 nM FC (GRN mRNA) [6]: 0.7 FC | 60 nM FC (GRN mRNA) [6]: 0.5 FC | 120 nM FC (GRN mRNA) [6]: 0.4 FC

CO-4609: ASO designed to target intergenic enhancers (eRNA) (antisense e[5mC]*e[5mC]*eA*eA*eT*eA*eA*eA*eG*e[5mC]*e[5mC]*eT*eT*eG*eG*eG*eT*eG*e[5mC]*e[5mC])
hGRN mRNA FC (normalized to CO-1589): 1.2 FC

CO-6410: ASO based on parent ASO CO-3462 (antisense eT*eAeG*eG*eAeG*eA*eAeT*e[5mC]*eGe[5mC]*eT*eTeT*eG*eGeG*eA*eG)
30 nM FC (GRN mRNA) [1]: 1.1 FC | 60 nM FC (GRN mRNA) [1]: 1.0 FC | 120 nM FC (GRN mRNA) [1]: 1.6 FC

CO-6423: ASO based on parent ASOs CO-4363 and CO-4364 (eG*eG*eA*e[5mC]*lT*eT*eG*eG*eG*lA*eG*eT*eG*eG*lT*eG*eA*e[5mC]*eT*lG*eA*eA*e[5mC])
30 nM FC (GRN mRNA) [4]: 1.2 FC | 60 nM FC (GRN mRNA) [4]: 2.6 FC | 120 nM FC (GRN mRNA) [4]: 2.8 FC

CO-6521: ASO based on parent ASO CO-3462 (antisense eT*eA*eG*eG*eA*eG*eA*eA*eT*e[5mC]eGe[5mC]eTeTeTeGeGeG*eA*eG)
30 nM FC (GRN mRNA) [1]: 1.1 FC | 60 nM FC (GRN mRNA) [1]: 1.2 FC | 120 nM FC (GRN mRNA) [1]: 1.1 FC

CO-6428: ASO based on parent ASOs CO-4363 and CO-4364 (eG*eG*eG*eA*e[5mC]*eT*eT*eG*eG*eG*eA*eG*eT*eG*eG*eT*eG*eA*e[5mC]*eT*eG*eA*eA*e[5mC]*e[5mC]*eT)
30 nM FC (GRN mRNA) [4]: 1.1 FC | 60 nM FC (GRN mRNA) [4]: 1.4 FC | 120 nM FC (GRN mRNA) [4]: 1.0 FC
